The nature of series [1]: in-vitro test of ability of calcium glutarate to bind with phosphates (free calcium in filtrate by atomic absorption spectrometry). To be noted: filtered through 0.45-μm nylon filter. On the procedure: (§1) The following in-vitro tests were conducted to test the solubility and ability of calcium glutarate to bind with phosphates. The tests included analysis for monobasic, Ca(Na2PO4)2, dibasic, CaNaPO4, and tribasic, Ca(PO4)2 binding. The three examples are as follows.
An aqueous solution of calcium glutarate was mixed with a twice over molar solution of sodium phosphate. A suspension formed which was filtered by a vacuum through a 0.45-μm nylon filter. The resulting filtrate was assayed for free calcium by atomic absorption spectrometry. The percent of calcium recovered in solution was 0.1%.
An aqueous solution of calcium glutarate was mixed with an equi-molar solution of sodium phosphate. A suspension formed which was filtered by vacuum through a 0.45-μm nylon filter. The resulting filtrate was assayed for free calcium by atomic absorption spectrometry. The percent of calcium recovered in solution was 0.1%.
An aqueous solution of calcium glutarate was mixed with a two-thirds molar solution of sodium phosphate. A suspension formed which was filtered by vacuum through a 0.45-μm nylon filter. The resulting filtrate was assayed for free calcium by atomic absorption spectrometry. The percent of calcium, recovered in solution was 4.5%.

Series [2] is described as follows: aqueous solubility of calcium salts. Type of series: physicochemical. On the procedure: as §1

Take `O=C([O-])CCCC(=O)[O-].[Ca+2]` [calcium glutarate]: the “percent of calcium recovered in solution” value in series [1] (mixed with a twice over molar solution of sodium phosphate) was 0.1%; in series [1] (mixed with a two-thirds molar solution of sodium phosphate), 4.5%; in series [1] (mixed with an equi-molar solution of sodium phosphate), 0.1%. The solubility result in series [2] is “about 5.2 gm per 100 cc”.

Values taken from patent US6887897B2, “Calcium glutarate supplement and phosphorus binder” (Mission Pharmacal Company, priority 2001, dated 2005).
